How the values were obtained:
rice = test: Treatment of soil under submerged condition, pre-emergence (Test 4), injury; type: in vivo; details: 30 g ai/a granule, 30 days later
Outline: (§1)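 Under submerged conditions, pots carrying weed propagules and transplanted young rice (2–3 leaves) were given a granulated test composition one day after planting, ahead of weed emergence. Plants grew in a greenhouse, with weed emergence and crop injury read 30 days after treatment.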

[1] = tested on: ALS (acetolactate syntase); test: ALS enzyme assay (Test 1); type: biochemical, barnyardgrass; details: 1,000 ppm (0.5 mg/0.5 ml)
Outline: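 Partially purified ALS from dark-grown pea and barnyardgrass seedlings incubated 1 h at 30° C with pyruvate, TPP, MgCl2 and FAD. Compounds tested at 1,000 ppm (0.5 mg/0.5 ml). Acetoin formed detected colorimetrically at 525 nm via creatine/α-naphthol, relative to blank and acid-stopped controls.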

johnsongrass [2] = test: Upland soil application test (Test 2); type: in vivo; details: 30 g ai/a, soil spray before emergence, 30 days later
Outline: (§2)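 Weeds are grown from seed incorporated in upland field soil under greenhouse conditions and treated pre-emergence, one day after sowing, with a water-diluted wettable powder of each compound. Effect is scored after 30 days from air-dried weight relative to untreated pots.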

green foxtail [3] = test: Upland soil application test (Test 2); type: in vivo; details: 30 g ai/a, soil spray before emergence, 30 days later
Outline: as §2

foxtail meadow [4] = test: Upland soil application test (Test 2); type: in vivo; details: 30 g ai/a, soil spray before emergence, 30 days later
Outline: as §2

bulrush = test: Treatment of soil under submerged condition, pre-emergence (Test 4); type: in vivo; details: 30 g ai/a granule, 30 days later
Outline: as §1

Sagittaria pygmaea = test: as above; type: in vivo; details: 30 g ai/a granule, 30 days later
Outline: as §1

barnyardgrass [5] = test: as above; type: in vivo; details: 30 g ai/a granule, 30 days later
Outline: as §1

redroot pigweed = test: Upland foliar application test (Test 3); type: in vivo; details: 30 g ai/a, foliar spray at 2-3 leaves, 30th day
Outline: (§3)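 Steps: sow in upland soil, greenhouse; grow to 2-3 leaf stage; spray leaves with water-diluted emulsion at 5 l per are using a ULV sprayer; assess effects on day 30.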

johnsongrass [6] = test: Upland foliar application test (Test 3); type: in vivo; details: 30 g ai/a, foliar spray at 2-3 leaves, 30th day
Outline: as §3

green foxtail [7] = test: Upland foliar application test (Test 3); type: in vivo; details: 30 g ai/a, foliar spray at 2-3 leaves, 30th day
Outline: as §3

foxtail meadow [8] = test: Upland foliar application test (Test 3); type: in vivo; details: 30 g ai/a, foliar spray at 2-3 leaves, 30th day
Outline: as §3

large crabgrass = test: Upland foliar application test (Test 3); type: in vivo; details: 30 g ai/a, foliar spray at 2-3 leaves, 30th day
Outline: as §3

barnyardgrass [9] = test: Upland foliar application test (Test 3); type: in vivo; details: 30 g ai/a, foliar spray at 2-3 leaves, 30th day
Outline: as §3

common lambsquarters = test: Upland foliar application test (Test 3); type: in vivo; details: 30 g ai/a, foliar spray at 2-3 leaves, 30th day
Outline: as §3

Compound | Injury Rice (rice) | Inhibitory activity (%) Barnyardgrass [1] | Herbicidal effects Johnsongrass (johnsongrass [2]) | Herbicidal effects Green foxtail (green foxtail [3]) | Herbicidal effects Foxtail meadow (foxtail meadow [4]) | Herbicidal effects Bulrush (bulrush) | Herbicidal effects Sagittaria Pygmaea (Sagittaria pygmaea) | Herbicidal effects Barnyardgrass (barnyardgrass [5]) | Herbicidal effects Redroot pigweed (redroot pigweed) | Herbicidal effects Johnsongrass (johnsongrass [6]) | Herbicidal effects Green foxtail (green foxtail [7]) | Herbicidal effects Foxtail meadow (foxtail meadow [8]) | Herbicidal effects Large crabgrass (large crabgrass) | Herbicidal effects Barnyardgrass (barnyardgrass [9]) | Herbicidal effects Common lambsquarters (common lambsquarters)
COc1cc(OC)nc(Oc2ccccc2C=NOCc2cccc3ccccc23)n1 [compound 22] | 0 (91-100 (No damages)) | 35% | 4 (6-10 (Severe damages)) | 4 (6-10 (Severe damages)) | 4 (6-10 (Severe damages)) | 3 (11-40 (Medium damages)) | 3 (11-40 (Medium damages)) | 3 (11-40 (Medium damages)) | 5 (0-5 (Death)) | 5 (0-5 (Death)) | 5 (0-5 (Death)) | 5 (0-5 (Death)) | 5 (0-5 (Death)) | 5 (0-5 (Death)) | 4 (6-10 (Severe damages))
COc1cc(OC)nc(Oc2ccccc2C=NOCCc2ccccc2)n1 [compound 23] | 0 (91-100 (No damages)) | 35% | 4 (6-10 (Severe damages)) | 3 (11-40 (Medium damages)) | 3 (11-40 (Medium damages)) | 4 (6-10 (Severe damages)) | 5 (0-5 (Death)) | 5 (0-5 (Death)) | 3 (11-40 (Medium damages)) | 5 (0-5 (Death)) | 4 (6-10 (Severe damages)) | 4 (6-10 (Severe damages)) | 3 (11-40 (Medium damages)) | 3 (11-40 (Medium damages)) | 3 (11-40 (Medium damages))
CCCC=CCON=Cc1ccccc1Oc1nc(OC)cc(OC)n1 [compound 25] | 1 (71-90 (Slight damages)) | 39% | 5 (0-5 (Death)) | 5 (0-5 (Death)) | 5 (0-5 (Death)) | 3 (11-40 (Medium damages)) | 4 (6-10 (Severe damages)) | 5 (0-5 (Death)) | 4 (6-10 (Severe damages)) | 5 (0-5 (Death)) | 5 (0-5 (Death)) | 5 (0-5 (Death)) | 5 (0-5 (Death)) | 4 (6-10 (Severe damages)) | 4 (6-10 (Severe damages))
COc1cc(OC)nc(Oc2ccccc2C=NOCC=Cc2ccc(F)cc2)n1 [compound 29] | 0 (91-100 (No damages)) | 98% | 5 (0-5 (Death)) | 4 (6-10 (Severe damages)) | 4 (6-10 (Severe damages)) | 3 (11-40 (Medium damages)) | 3 (11-40 (Medium damages)) | 3 (11-40 (Medium damages)) | 5 (0-5 (Death)) | 5 (0-5 (Death)) | 4 (6-10 (Severe damages)) | 4 (6-10 (Severe damages)) | 4 (6-10 (Severe damages)) | 5 (0-5 (Death)) | 4 (6-10 (Severe damages))
COc1cc(OC)nc(Oc2ccccc2C=NOCC=Cc2ccc(Cl)cc2Cl)n1 [compound 30] | 0 (91-100 (No damages)) | 97% | 5 (0-5 (Death)) | 5 (0-5 (Death)) | 5 (0-5 (Death)) | 4 (6-10 (Severe damages)) | 5 (0-5 (Death)) | 5 (0-5 (Death)) | 5 (0-5 (Death)) | 5 (0-5 (Death)) | 5 (0-5 (Death)) | 5 (0-5 (Death)) | 5 (0-5 (Death)) | 5 (0-5 (Death)) | 4 (6-10 (Severe damages))
COc1cc(OC)nc(Oc2ccccc2C=NOCC=Cc2ccc(Cl)c(Cl)c2)n1 [compound 31] | 0 (91-100 (No damages)) | 90% | 5 (0-5 (Death)) | 4 (6-10 (Severe damages)) | 4 (6-10 (Severe damages)) | 3 (11-40 (Medium damages)) | 4 (6-10 (Severe damages)) | 3 (11-40 (Medium damages)) | 3 (11-40 (Medium damages)) | 5 (0-5 (Death)) | 4 (6-10 (Severe damages)) | 4 (6-10 (Severe damages)) | 4 (6-10 (Severe damages)) | 4 (6-10 (Severe damages)) | 4 (6-10 (Severe damages))
COc1cc(OC)nc(Oc2ccccc2C=NOCC=Cc2ccccc2C(F)(F)F)n1 [compound 32] | 0 (91-100 (No damages)) | 91% | 5 (0-5 (Death)) | 5 (0-5 (Death)) | 5 (0-5 (Death)) | 4 (6-10 (Severe damages)) | 5 (0-5 (Death)) | 5 (0-5 (Death)) | 5 (0-5 (Death)) | 5 (0-5 (Death)) | 5 (0-5 (Death)) | 5 (0-5 (Death)) | 5 (0-5 (Death)) | 5 (0-5 (Death)) | 4 (6-10 (Severe damages))
COc1cc(OC)nc(Oc2ccccc2C=NOCC=Cc2c(F)cccc2F)n1 [compound 33] | 0 (91-100 (No damages)) | 91% | 5 (0-5 (Death)) | 5 (0-5 (Death)) | 5 (0-5 (Death)) | 4 (6-10 (Severe damages)) | 5 (0-5 (Death)) | 4 (6-10 (Severe damages)) | 4 (6-10 (Severe damages)) | 5 (0-5 (Death)) | 5 (0-5 (Death)) | 5 (0-5 (Death)) | 5 (0-5 (Death)) | 5 (0-5 (Death)) | 4 (6-10 (Severe damages))
COc1cc(OC)nc(Oc2ccccc2C=NOCC=Cc2ccc(C(F)(F)F)cc2)n1 [compound 35] | 0 (91-100 (No damages)) | 89% | 5 (0-5 (Death)) | 5 (0-5 (Death)) | 5 (0-5 (Death)) | 3 (11-40 (Medium damages)) | 5 (0-5 (Death)) | 4 (6-10 (Severe damages)) | 4 (6-10 (Severe damages)) | 5 (0-5 (Death)) | 5 (0-5 (Death)) | 5 (0-5 (Death)) | 5 (0-5 (Death)) | 5 (0-5 (Death)) | 4 (6-10 (Severe damages))
COc1cc(OC)nc(Oc2ccccc2C=NOCC=Cc2ccc(C)cc2)n1 [compound 36] | 0 (91-100 (No damages)) | 92% | 5 (0-5 (Death)) | 5 (0-5 (Death)) | 5 (0-5 (Death)) | 4 (6-10 (Severe damages)) | 5 (0-5 (Death)) | 4 (6-10 (Severe damages)) | 4 (6-10 (Severe damages)) | 5 (0-5 (Death)) | 5 (0-5 (Death)) | 5 (0-5 (Death)) | 5 (0-5 (Death)) | 5 (0-5 (Death)) | 4 (6-10 (Severe damages))

— US5053070A, “Pyrimidine derivatives, preparation processes thereof, herbicide containing the same, and herbicidal compositions containing the same along with other active ingredient” (Mitsui Toatsu Chemicals, Incorporated, priority 1988, dated 1991)
